From paper PMC5342726, “Identification of small molecule inhibitors of ERCC1-XPF that inhibit DNA repair and potentiate cisplatin efficacy in cancer cells” (Oncotarget, 2016) come the findings set out here.

The target in experiment [1] is T1, ERCC1-XPF (Homo sapiens, UniProt P07992+Q92889).
T1 construct: made in house; host or cells: Sf9 insect cells, baculovirus (obtained from Aziz Sancar)
T1 sequence (Q92889 1-916): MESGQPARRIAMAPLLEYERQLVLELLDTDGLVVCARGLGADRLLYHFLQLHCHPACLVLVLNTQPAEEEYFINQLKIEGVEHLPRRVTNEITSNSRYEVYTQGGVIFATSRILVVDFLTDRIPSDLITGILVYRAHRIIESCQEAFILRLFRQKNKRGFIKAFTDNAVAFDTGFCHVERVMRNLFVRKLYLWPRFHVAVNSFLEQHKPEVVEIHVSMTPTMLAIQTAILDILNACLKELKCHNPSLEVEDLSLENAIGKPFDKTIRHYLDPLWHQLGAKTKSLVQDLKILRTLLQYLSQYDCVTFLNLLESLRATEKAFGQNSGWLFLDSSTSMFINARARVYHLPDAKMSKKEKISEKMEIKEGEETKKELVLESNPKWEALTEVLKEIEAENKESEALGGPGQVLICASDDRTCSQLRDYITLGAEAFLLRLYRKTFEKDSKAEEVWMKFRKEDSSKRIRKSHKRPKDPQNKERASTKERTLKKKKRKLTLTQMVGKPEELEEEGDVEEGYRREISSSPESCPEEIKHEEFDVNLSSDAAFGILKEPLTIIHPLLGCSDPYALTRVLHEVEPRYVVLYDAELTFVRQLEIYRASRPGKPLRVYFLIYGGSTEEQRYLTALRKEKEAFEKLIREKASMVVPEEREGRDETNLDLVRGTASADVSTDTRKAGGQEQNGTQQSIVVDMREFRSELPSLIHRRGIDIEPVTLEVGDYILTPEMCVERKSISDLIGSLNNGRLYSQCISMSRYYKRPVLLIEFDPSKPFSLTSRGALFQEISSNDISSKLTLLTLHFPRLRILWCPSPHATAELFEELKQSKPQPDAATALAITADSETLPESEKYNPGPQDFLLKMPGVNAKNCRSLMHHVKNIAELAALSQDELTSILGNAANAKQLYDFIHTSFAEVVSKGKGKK
T1 sequence (P07992 1-297): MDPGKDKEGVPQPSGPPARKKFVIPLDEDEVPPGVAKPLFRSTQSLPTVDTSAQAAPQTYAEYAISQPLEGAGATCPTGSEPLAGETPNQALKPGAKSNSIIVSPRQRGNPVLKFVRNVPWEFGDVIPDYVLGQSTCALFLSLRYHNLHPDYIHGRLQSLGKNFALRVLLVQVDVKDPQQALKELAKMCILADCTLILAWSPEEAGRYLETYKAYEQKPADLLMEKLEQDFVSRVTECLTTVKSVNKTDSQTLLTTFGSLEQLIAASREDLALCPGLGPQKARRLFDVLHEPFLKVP
In words: EMSA, binding of ERCC1-XPF to DNA. The conditions noted are these: for effect on binding of purified ERCC1-XPF to DNA: compound titration, concentrations used in further in vitro experiments.
Method: In order to study if the compounds' inhibitory activity of ERCC1-XPF incision is due to inhibition of DNA binding ability, we performed EMSAs [23]. […] In this assay, we incubated the titrated Hit 1 or 2 respectively with purified ERCC1-XPF on ice and reactions were initiated by the addition of the 5'-[^32P] radiolabeled DNA substrate 37°C. The samples were separated on a 10% native gel and the products were visualized via phosphorimager analysis.
Sciences Core at Karmanos Cancer Institute using DNA Binding-electrophoretic mobility shift assay
was used for testing the effect of compounds on the DNA
in SF9 insect cells using a baculovirus expression system requires metal for DNA incision, MgCl2 was excluded
0.1M EDTA was added to the
Post incubation, glutaraldehyde was added to a final
column, which was initially loaded and washed with a low minutes at 37°C. The reaction was run on a 10% native

Experiment [2] deals with T1, ERCC1-XPF. In words: Rapid dilution experiment for reversible or irreversible binding. The format is biochemical. The conditions noted are these: for recovery of enzymatic activity after rapid dilution: 100-fold enzyme preincubated 30 min with 10 times IC90, diluted 100-fold; for reversibility of binding to ERCC1-XPF: rapid dilution method. How it is done: Next, to determine reversible or irreversible binding, we used a rapid dilution method. Here, the amount of enzyme (ERCC1-XPF) is increased 100-fold above what is normally used in a reaction and is pre-incubated for 30 minutes with a concentration of the SMI 10-times greater than the IC90 concentration or with vehicle control. After incubation, the enzyme/inhibitor mixture is diluted 100-fold (i.e., to normal reaction conditions) in the reaction buffer with the DNA substrate at normal reaction conditions. A reversible inhibitor dissociates quickly, allowing immediate recovery of enzymatic activity, whereas a slowly reversible inhibitor allows a gradual increase in activity. In contrast, an irreversible inhibitor prevents recovery of any enzymatic activity. […]
Analysis of DNA binding treatment) was used as 100% intrastrand adducts in each […]
Rapid dilution experiments as described previously […]
of the identified compounds – Hit 1 (NSC143099) and Hit comet assay
2 (NSC16168) to ERCC1-XPF. Briefly, in a 10 μl reaction, ERCC1-XPF concentration was increased 100-fold from Repair of interstrand crosslinks (ICLs) normal reaction conditions of 7.5 nM and mixed with 10 was assessed by alkaline comet assay with some times the IC90 concentration of the compound or vehicle modifications. Cells were treated with compound (Hit control (9:1 DMSO-glycerol). After incubation at 37°C 1 or Hit 2) and cisplatin or just cisplatin alone in serum for 30 minutes, 2 μL of the pre-incubate was diluted into a free media. For treatment with compound and cisplatin, 198 μL solution containing the DNA substrate and reaction cells were treated with compound at 15 µM for 2 hours buffer described in the methods section for HTS assay in a 96 and then cisplatin was added (at IC90 concentration for well plate. The 96-well plate was read in a Spectramax M5 the cell line used) to the media and these were incubated repeatedly for 60 minutes. The data was plotted as increase for another 2 hours. […]
Cisplatin intrastrand adduct measurement by of hydrogen peroxide for 15 minutes to induce random ELISA DNA strand breaks. Cells were then trypsinized, pelleted and resuspended in 1% low melting point agarose. Cell […]
ELISA as described with some modifications. […] Equal amounts of DNA were coated on 96 kept in neutralizing solution (0.4 M Tris–HCl, pH 7.5) well DNA binding ELISA plates in binding buffer (1M for 10 minutes. Slides were then stained with SYBR sodium chloride, 50 mM sodium phosphate buffer, pH green (Trevigen) and comets were analyzed using a 7.4, 0.02% sodium azide) and incubated at 4°C overnight. […]
The wells were blocked with 1% BSA in PBS for 1 hour Fifty cells were analyzed per slide using Komet Assay at room temperature. […]

With `Oc1cc(O)c2c(c1)OC(c1ccc(O)c(O)c1)C(O)C2c1c(O)cc(O)c2c1OC(c1ccc(O)c(O)c1)C(O)C2` (stereo not shown) [NSC143099], the “effect on binding of purified ERCC1-XPF to DNA” value on ERCC1-XPF [1] was “does not affect the binding of purified ERCC1-XPF to DNA”. Further, at ERCC1-XPF [2], the “recovery of enzymatic activity after rapid dilution” value is given as “virtually no recovery of the enzymatic activity” and the “reversibility of binding to ERCC1-XPF” value was “binds irreversibly”.
Regarding `Cc1ccc(S(=O)(=O)Oc2cc(S(=O)(=O)O)cc3cc(S(=O)(=O)O)cc(N)c23)cc1` [NSC16168], the “effect on binding of purified ERCC1-XPF to DNA” value at ERCC1-XPF [1] is given as “does not affect DNA binding of ERCC1-XPF”. For the same compound, at ERCC1-XPF [1] (highest concentrations), the “effect on binding of ERCC1-XPF to DNA at the highest concentrations” value was “minor effect on the DNA binding”. At ERCC1-XPF [2], the “recovery of enzymatic activity after rapid dilution” value is on record as “recovers slowly” and the “reversibility of binding to ERCC1-XPF” value is listed as “moderately reversible inhibitor”.
